The values that follow come from article PMC6796237 (ACS Omega, 2019).

The target of this assay is recombinant HCV NS3/4A GT1b wt (Hepatitis C virus genotype 1b, UniProt Q9WMX2). Kind of assay: HCV NS3/4A enzymatic inhibition assay, wild type. In kind it is biochemical. The note with it: compounds at 13.08, 14.68, 4.60 μM of 1, 12, 22; 40 nM enzyme.
recombinant HCV NS3/4A GT1b wt, sequence (Q9WMX2 1027-1657 limits assumed): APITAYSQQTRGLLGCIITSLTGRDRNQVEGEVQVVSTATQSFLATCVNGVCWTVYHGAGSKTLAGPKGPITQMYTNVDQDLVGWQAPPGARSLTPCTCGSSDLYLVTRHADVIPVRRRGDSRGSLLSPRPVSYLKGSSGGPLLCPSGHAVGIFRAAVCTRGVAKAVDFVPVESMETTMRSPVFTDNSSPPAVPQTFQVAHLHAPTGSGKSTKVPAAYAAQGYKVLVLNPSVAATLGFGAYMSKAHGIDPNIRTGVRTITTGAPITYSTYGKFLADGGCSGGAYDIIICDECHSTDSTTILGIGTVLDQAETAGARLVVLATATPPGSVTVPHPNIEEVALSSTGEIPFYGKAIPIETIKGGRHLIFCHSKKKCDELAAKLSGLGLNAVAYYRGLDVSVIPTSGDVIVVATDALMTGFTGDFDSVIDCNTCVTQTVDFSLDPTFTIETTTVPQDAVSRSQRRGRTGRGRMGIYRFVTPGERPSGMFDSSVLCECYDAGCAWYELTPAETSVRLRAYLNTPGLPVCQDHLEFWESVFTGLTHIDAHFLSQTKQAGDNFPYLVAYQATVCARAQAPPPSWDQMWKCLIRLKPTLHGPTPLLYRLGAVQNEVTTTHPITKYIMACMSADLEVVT
recombinant HCV NS3/4A GT1b wt, sequence (Q9WMX2 1658-1711 partner limits assumed): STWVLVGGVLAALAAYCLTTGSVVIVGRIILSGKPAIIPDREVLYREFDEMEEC

With “3-(1H-Indol-3-yl)-2-(3-(4-isopropylphenyl)ureido)-N-(3-(piperidin-1-yl)propyl)propenamide [Compound 22]”, the “Decrease of HCV NS3/4A activity” value is “about 50%”.
